Data taken from patent US20240317744A1, “Bicyclic Ureas As Kinase Inhibitors” (Incyte Corporation, priority 2023, published 2024).

Legend:
[1] = molecular target: T1, pseudo-kinase domain (JH2, amino-acids 536-812) of human V617F mutant JAK2 (Homo sapiens, UniProt O60674, F794H/V617F/W659A/W777A); experiment: JAK2 LanthaScreen JH2-V617F Binding Assay; settings: JAK2 JH2-V617F 0.26 nM, 50 nM tracer, 1 hour at 25° C.; read-out: JH2 BIND V617F
T1 construct: pseudo-kinase domain (JH2, amino-acids 536-812 with 3 surface mutations W659A, W777A, F794H); His (C); purchased BPS Bioscience 79498; host or cells: baculovirus expression system
T1 sequence (O60674 536-812 V617F/W659A/W777A/F794H): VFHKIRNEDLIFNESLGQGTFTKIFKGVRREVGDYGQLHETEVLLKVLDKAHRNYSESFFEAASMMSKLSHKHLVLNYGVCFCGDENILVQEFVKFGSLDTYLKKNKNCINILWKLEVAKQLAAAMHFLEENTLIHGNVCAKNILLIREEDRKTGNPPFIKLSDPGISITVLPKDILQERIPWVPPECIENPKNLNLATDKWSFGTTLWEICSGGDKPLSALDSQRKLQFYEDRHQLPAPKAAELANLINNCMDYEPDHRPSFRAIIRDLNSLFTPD
In short: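 Biotinylated His-Avi-tagged construct, baculovirus-expressed, at 0.26 nM; compounds competed against 50 nM fluorescent JH2 tracer with 0.25 nM streptavidin-Tb in Tris pH 7.5 buffer. Non-specific binding defined with 2 mM ATP. Read after 1 h at 25° C by TR-FRET; IC50 from four-parameter fit.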

[2] = molecular target: catalytic domain (JH1, amino acids 808-1132) of human JAK2 (Homo sapiens, UniProt O60674); experiment: JAK2 HTRF Enzyme Activity Assay; type: biochemical; settings: ATP 30 µM, 60 minutes at 25° C.; read-out: V617F ENZ 30 UM
Chain of catalytic domain (JH1, amino acids 808-1132) of human JAK2 (O60674 808-1132 limits assumed): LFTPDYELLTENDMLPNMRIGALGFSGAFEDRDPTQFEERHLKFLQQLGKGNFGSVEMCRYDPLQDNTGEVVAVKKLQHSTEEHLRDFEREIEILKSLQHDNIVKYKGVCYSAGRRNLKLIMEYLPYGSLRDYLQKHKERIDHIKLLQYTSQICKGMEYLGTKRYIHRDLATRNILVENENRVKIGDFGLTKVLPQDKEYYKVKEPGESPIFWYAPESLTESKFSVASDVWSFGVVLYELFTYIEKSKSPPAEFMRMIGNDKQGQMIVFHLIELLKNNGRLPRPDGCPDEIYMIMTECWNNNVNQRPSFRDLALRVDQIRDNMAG

[3] = molecular target: T2, pseudo-kinase domain (JH2, amino-acids 536-812) of human Wild Type JAK2 (Homo sapiens, UniProt O60674, F794H/W659A/W777A); experiment: JAK2 LanthaScreen JH2-WT Binding Assay; settings: JAK2 JH2-WT 0.145 nM, 50 nM tracer, 1 hour at 25° C.; read-out: JH2 BIND WT
T2 construct: pseudo-kinase domain (JH2, amino-acids 536-812 with 3 surface mutations W659A, W777A, F794H); His (C); purchased BPS Bioscience 79463; host or cells: baculovirus expression system
T2 sequence (O60674 536-812 W659A/W777A/F794H): as the sequence (O60674 536-812 V617F/W659A/W777A/F794H) above, with F82V counted along it
Procedure: Example B. JAK2 LanthaScreen JH2-WT Binding Assay
JAK2 JH2-WT binding assay utilizes pseudo-kinase domain (JH2, amino-acids 536-812 with 3 surface mutations W659A, W777A, F794H) of human Wild Type JAK2 expressed as C-terminal His-Avi-tagged, biotinylated protein in a baculovirus expression system (BPS Bioscience, Catalog #79463). The assay was conducted in black 384-well polystyrene plates in a final reaction volume of 20 μL. JAK2 JH2-WT (0.145 nM) was incubated with compounds (100 nL serially diluted in DMSO) in the presence of 50 nM Fluorescent JAK2-JH2 Tracer (MedChem Express Catalog #HY-102055) and 0.25 nM Streptavidin-Tb cryptate (Cisbio Part #610SATLB) in assay buffer (50 mM Tris, pH=7.5, 10 mM MgCl2, 0.01% Brij-35, 0.1% BSA, 1 mM EGTA, 5% Glycerol and 5 mM DTT). Non-specific binding was accessed in the presence of 2 mM ATP. After incubation for 1 hour at 25° C., LanthaScreen signals were read on a PHERAstar FS plate reader (BMG LABTECH). Data was analyzed with IDBS XLfit and GraphPad Prism 5.0 software using a four parameter dose response curve to determine IC50 for each compound.

[4] = molecular target: T3, catalytic domain (JH1, amino acids 826-1132) of human JAK2 (Homo sapiens, UniProt O60674); experiment: JAK2 LanthaScreen JH1 Binding Assay; settings: JAK2 JH1 1.5 nM, 50 nM tracer, 2 hours at 25° C.; read-out: JH1 BIND
T3 construct: catalytic domain (JH1, amino acids 826-1132) of human JAK2; FLAG (N); biotin (biotinylated); purchased Carna Biosciences 08-445-20N; host or cells: baculovirus expression system
T3 sequence (O60674 826-1132): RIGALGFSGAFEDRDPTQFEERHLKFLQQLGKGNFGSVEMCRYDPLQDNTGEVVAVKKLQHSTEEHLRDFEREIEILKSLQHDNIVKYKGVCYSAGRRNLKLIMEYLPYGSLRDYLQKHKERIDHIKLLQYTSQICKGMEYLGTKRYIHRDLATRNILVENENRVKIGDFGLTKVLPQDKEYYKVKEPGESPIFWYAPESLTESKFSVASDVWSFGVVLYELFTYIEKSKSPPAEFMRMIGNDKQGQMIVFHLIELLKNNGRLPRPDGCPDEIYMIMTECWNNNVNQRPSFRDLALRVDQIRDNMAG
Procedure: Example A. JAK2 LanthaScreen JH1 Binding Assay
JAK2 JH1 binding assay utilizes catalytic domain (JH1, amino acids 826-1132) of human JAK2 expressed as N-terminal FLAG-tagged, biotinylated protein in a baculovirus expression system (Carna Biosciences, Product #08-445-20N). The assay was conducted in black 384-well polystyrene plates in a final reaction volume of 20 μL. JAK2 JH1 (1.5 nM) was incubated with compounds (100 nL serially diluted in DMSO) in the presence of 50 nM fluorescent JAK2-JH1 tracer and 0.5 nM Streptavidin-Tb cryptate (Cisbio Part #610SATLB) in assay buffer (50 mM Tris, pH=7.5, 10 mM MgCl2, 0.01% Brij-35, 0.1% BSA, 1 mM EGTA, 5% Glycerol and 5 mM DTT). Non-specific binding was accessed in the presence of 2 mM ATP. After incubation for 2 hours at 25° C., LanthaScreen signals were read on a PHERAstar FS plate reader (BMG LABTECH). Data was analyzed with IDBS XLfit and GraphPad Prism 5.0 software using a four parameter dose response curve to determine IC50 for each compound.

SMILES | IC50 [1] | IC50 [2] | IC50 [3] | IC50 [4]
[2H]C([2H])([2H])n1c(=O)n([C@@H]2CC[C@@H](NC(=O)OC)C2)c2cc(Nc3ccc4cc(-c5cnn(C)c5)cc(C(F)(F)F)c4n3)ncc21 [Example 20, Methyl ((1R,3R)-3-(3-(methyl-d3)-6-((6-(1-methyl-1H-pyrazol-4-yl)-8-(trifluoromethyl)quinolin-2-yl)amino)-2-oxo-2,3-dihydro-1H-imidazo[4,5-c]pyridin-1-yl)cyclopentyl)carbamate] | ≤ 10 nM | > 1000 nM | ≤ 10 nM | > 1000 nM
COC(=O)Nc1cc(Nc2cc3c(cn2)n(C)c(=O)n3[C@@H]2CC[C@@H](NC(=O)OC)C2)cc(C2CCCOC2)c1 (stereo partly drawn) [Example 21, Methyl (3-((1-((1R,3R)-3-((methoxycarbonyl)amino)cyclopentyl)-3-methyl-2-oxo-2,3-dihydro-1H-imidazo[4,5-c]pyridin-6-yl)amino)-5-(tetrahydro-2H-pyran-3-yl)phenyl)carbamate] | ≤ 10 nM | > 1000 nM | ≤ 10 nM | > 1000 nM
COC(=O)N[C@@H]1CC[C@@H](n2c(=O)n(C)c3cnc(Nc4cccc(OC5CCC(C#N)CC5)n4)cc32)C1 (stereo partly drawn) [Example 22, Methyl ((1R,3R)-3-(6-((6-((4-cyanocyclohexyl)oxy)pyridin-2-yl)amino)-3-methyl-2-oxo-2,3-dihydro-1H-imidazo[4,5-c]pyridin-1-yl)cyclopentyl)carbamate] | 10 to 100 nM | > 1000 nM | 10 to 100 nM | > 1000 nM
COC(=O)N[C@@H]1CC[C@@H](n2c(=O)n(C)c3cnc(Nc4cccc(Oc5ccc6ncccc6c5)n4)cc32)C1 [Example 23, Methyl ((1R,3R)-3-(3-methyl-2-oxo-6-((6-(quinolin-6-yloxy)pyridin-2-yl)amino)-2,3-dihydro-1H-imidazo[4,5-c]pyridin-1-yl)cyclopentyl)carbamate] | 10 to 100 nM | > 1000 nM | 10 to 100 nM | > 1000 nM
COC(=O)Nc1cc(Nc2cc3c(cn2)n(C)c(=O)n3[C@H]2C[C@H](NC(=O)C3CC3)C2)cc(-c2cnn(C)c2)c1 [Example 24, Methyl (3-((1-((1r,3r)-3-(cyclopropanecarboxamido)cyclobutyl)-3-methyl-2-oxo-2,3-dihydro-1H-imidazo[4,5-c]pyridin-6-yl)amino)-5-(1-methyl-1H-pyrazol-4-yl)phenyl)carbamate] | 10 to 100 nM | > 1000 nM | 10 to 100 nM | > 1000 nM
CCOC(=O)NC1CC2(C1)CC(n1c(=O)n(C)c3cnc(Nc4cc(NC(=O)OC)cc(-c5cnn(C)c5)c4)cc31)C2 (centres unmarked) [Example 25, Methyl (3-((1-(6-((ethoxycarbonyl)amino)spiro[3.3]heptan-2-yl)-3-methyl-2-oxo-2,3-dihydro-1H-imidazo[4,5-c]pyridin-6-yl)amino)-5-(1-methyl-1H-pyrazol-4-yl)phenyl)carbamate] | 100 to 500 nM | > 1000 nM | 10 to 100 nM | > 1000 nM
COC(=O)Nc1cc(Nc2cc3c(cn2)n(C)c(=O)n3C2CC3(CC(NS(=O)(=O)C4CC4)C3)C2)cc(-c2cnn(C)c2)c1 (centres unmarked) [Example 26, Methyl (3-((1-(6-(cyclopropanesulfonamido)spiro[3.3]heptan-2-yl)-3-methyl-2-oxo-2,3-dihydro-1H-imidazo[4,5-c]pyridin-6-yl)amino)-5-(1-methyl-1H-pyrazol-4-yl)phenyl)carbamate] | 10 to 100 nM | > 1000 nM | 10 to 100 nM | > 1000 nM
COC(=O)Nc1cc(Nc2cc3c(cn2)n(C)c(=O)n3C2CC3(C2)CN(C(=O)OC)C3)cc(-c2cnn(C)c2)c1 [Example 27, Methyl 6-(6-((3-((methoxycarbonyl)amino)-5-(1-methyl-1H-pyrazol-4-yl)phenyl)amino)-3-methyl-2-oxo-2,3-dihydro-1H-imidazo[4,5-c]pyridin-1-yl)-2-azaspiro[3.3]heptane-2-carboxylate] | 100 to 500 nM | > 1000 nM | 100 to 500 nM | > 1000 nM
COC(=O)Nc1cc(Nc2cc3c(cn2)n(C)c(=O)n3[C@H]2C[C@H](C#N)C2)cc(-c2cnn(C)c2)c1 [Example 28, Methyl (3-((1-((1r,3r)-3-cyanocyclobutyl)-3-methyl-2-oxo-2,3-dihydro-1H-imidazo[4,5-c]pyridin-6-yl)amino)-5-(1-methyl-1H-pyrazol-4-yl)phenyl)carbamate] | 100 to 500 nM | > 1000 nM | 10 to 100 nM | > 1000 nM
COC(=O)Nc1cc(Nc2cc3c(cn2)n(C)c(=O)n3[C@H]2C[C@](C)(NC(=O)OC)C2)cc(-c2cnn(C)c2)c1 [Example 29, Methyl (3-((1-((1r,3r)-3-((methoxycarbonyl)amino)-3-methylcyclobutyl)-3-methyl-2-oxo-2,3-dihydro-1H-imidazo[4,5-c]pyridin-6-yl)amino)-5-(1-methyl-1H-pyrazol-4-yl)phenyl)carbamate] | 100 to 500 nM | > 1000 nM | 100 to 500 nM | > 1000 nM
COC(=O)Nc1cc(Nc2cc3c(cn2)n(C)c(=O)n3[C@@H]2CCC(F)(F)C2)cc(-c2cnn(C)c2)c1 [Example 30, Methyl (R)-(3-((1-(3,3-difluorocyclopentyl)-3-methyl-2-oxo-2,3-dihydro-1H-imidazo[4,5-c]pyridin-6-yl)amino)-5-(1-methyl-1H-pyrazol-4-yl)phenyl)carbamate] | 100 to 500 nM | > 1000 nM | 10 to 100 nM | > 1000 nM
COC(=O)Nc1cc(Nc2cc3c(cn2)n(C)c(=O)n3[C@@H]2CC[C@H](F)C2)cc(-c2cnn(C)c2)c1 [Example 31, Methyl (3-((1-((1R,3S)-3-fluorocyclopentyl)-3-methyl-2-oxo-2,3-dihydro-1H-imidazo[4,5-c]pyridin-6-yl)amino)-5-(1-methyl-1H-pyrazol-4-yl)phenyl)carbamate] | 10 to 100 nM | > 1000 nM | 10 to 100 nM | > 1000 nM
COC(=O)N[C@@H]1CC[C@@H](n2c(=O)n(C)c3cnc(Nc4ccc5cc(-c6cnn(C)c6)ccc5n4)cc32)C1 [Example 32, Methyl ((1R,3R)-3-(3-methyl-6-((6-(1-methyl-1H-pyrazol-4-yl)quinolin-2-yl)amino)-2-oxo-2,3-dihydro-1H-imidazo[4,5-c]pyridin-1-yl)cyclopentyl)carbamate] | 100 to 500 nM | > 1000 nM | 100 to 500 nM | > 1000 nM
COC(=O)N[C@@H]1CC[C@@H](n2c(=O)n(C)c3cnc(Nc4ccc5cccc(-c6cnn(C)c6)c5n4)cc32)C1 [Example 33, Methyl ((1R,3R)-3-(3-methyl-6-((8-(1-methyl-1H-pyrazol-4-yl)quinolin-2-yl)amino)-2-oxo-2,3-dihydro-1H-imidazo[4,5-c]pyridin-1-yl)cyclopentyl)carbamate] | 10 to 100 nM | > 1000 nM | 10 to 100 nM | > 1000 nM
